# Results: US12116362B2, “Monocyclic compounds useful as GPR120 modulators” (Valo Health, Inc., priority 2016, dated 2024)
# Biological target: T1, human GPR120 (Homo sapiens, UniProt Q5NUL3)
# T1 construct: host or cells: CHO-K1
# Test: GPR120 β-Arrestin Recruitment Assay (PathHunter, CHO-K1 cells)
# Assay type: cell-based
# Details: CHO-K1; @ 10 uM; read-out: percent activation at a single concentration (printed in the β-Arr pEC50 column)
# Excerpt: This in vitro assay tests compounds' ability to activate intracellular signaling via 3-Arrestin recruitment to heterologously expressed human GPR120. This functional cellular assay utilizes enzyme fragment complementation with β-galactosidlase (β-gal) as a functional reporter (DiscoveRx PathlHunter® β-Arrestin assay platform). The human (GPR120 receptor (GenBank accession Number NM_181745) was fused in frame with the small enzyme fragment ProLink™ and co-expressed in CHO-K1 cells with a fusion protein of β-Arrestin 2 and the larger, N-terminal deletion mutant of β-gal. Activation by a GPR120 agonist stimulates binding of β-arrestin to the ProLink-tagged GPCR and forces complementation of the two enzyme fragments, resulting in the formation of an active β-gal enzyme. This interaction leads to an increase in enzyme activity that can be measured using chemiluminescent PathHunter® Detection Reagents.
# One day prior to the assay, cells were seeded in a total volume of 20 μl of growth medium into white walled 384-well microplates and incubated at 37° C./5% CO2 overnight. On the day of the assay, growth medium was removed and 20 μl assay buffer (HBSS+10 mM HEPES+0.1% heat-inactivated BSA) were added to each well.
# Test compounds were dissolved in 100% DMSO to a concentration of 10 mM to provide stock solutions. Serial dilutions were performed from stock solutions into assay buffer to obtain intermediate concentrations of 5-fold higher than the concentrations to be tested. 5 μl of the 5× compound solutions were added to the cells and the assay plates were incubated at 37° C. for 90 minutes. The final concentration of compounds tested in the assay ranged from 1.5 nM to 100 μM. Following incubation, 12.5 μl of PathHunter® detection reagent were added to each well, and plates were incubated at room temperature for 60 minutes. Chemiluminescence was read using an EnVision plate reader (PerkinElmer), raw data were expressed as relative light units (RLU).
# To determine agonist potencies (EC50 values), non-linear least-squares curve fits of the raw data (RLU) were performed in the GraphPad Prism software package, using the 4-parameter model with variable Hill Slope:
# Reported below in Table 1 are pEC50 values (pEC50=−log(EC50) from curve fit) for compounds of Formula I in this assay, β-Arr pEC50 Alternatively, percent activation at a single concentration is reported.
# T1 sequence (Q5NUL3 1-377 isoform Q5NUL3-1): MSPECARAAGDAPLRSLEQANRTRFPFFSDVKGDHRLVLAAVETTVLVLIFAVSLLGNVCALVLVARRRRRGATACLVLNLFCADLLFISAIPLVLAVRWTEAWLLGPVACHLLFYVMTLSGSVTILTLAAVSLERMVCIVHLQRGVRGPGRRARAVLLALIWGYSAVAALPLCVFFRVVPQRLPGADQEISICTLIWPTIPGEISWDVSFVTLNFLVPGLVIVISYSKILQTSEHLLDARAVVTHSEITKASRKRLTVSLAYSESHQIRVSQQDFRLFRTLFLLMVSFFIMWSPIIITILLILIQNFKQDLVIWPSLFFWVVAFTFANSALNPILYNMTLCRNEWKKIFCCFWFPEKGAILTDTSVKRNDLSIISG
# T1 sequence (P32121 whole entry partner): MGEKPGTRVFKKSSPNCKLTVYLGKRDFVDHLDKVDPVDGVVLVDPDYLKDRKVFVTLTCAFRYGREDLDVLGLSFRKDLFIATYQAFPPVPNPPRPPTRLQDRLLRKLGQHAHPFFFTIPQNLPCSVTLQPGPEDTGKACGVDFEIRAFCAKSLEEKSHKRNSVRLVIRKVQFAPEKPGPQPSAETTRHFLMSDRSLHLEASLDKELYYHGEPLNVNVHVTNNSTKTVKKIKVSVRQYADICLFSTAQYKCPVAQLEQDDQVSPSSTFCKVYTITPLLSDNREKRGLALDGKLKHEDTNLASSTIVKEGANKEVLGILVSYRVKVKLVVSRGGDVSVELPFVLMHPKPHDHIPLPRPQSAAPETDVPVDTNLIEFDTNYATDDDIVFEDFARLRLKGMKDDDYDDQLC
row,SMILES,activation at 10 µM [%]
1,CC1(C)c2ccccc2CN1c1ccnc(Oc2cccnc2)n1 [Compound 2],18
2,c1cncc(Oc2nccc(N3Cc4ccccc4C3)n2)c1 [Compound 13],9
3,c1cncc(Oc2ccnc(N3Cc4ccccc4C3)n2)c1 [Compound 14],8
4,O=S1(=O)c2ccccc2CN1c1ccnc(Oc2ccncc2)n1 [Compound 15],3
5,Cc1ncccc1Oc1nccc(N2Cc3ccccc3S2(=O)=O)n1 [Compound 17],4

# Now from value to compound:
row,activation at 10 µM [%],SMILES
1,1,CC(=O)Nc1cccc(Oc2nccc(N3Cc4ccccc4S3(=O)=O)n2)c1 [Compound 24]
2,16,O=S1(=O)c2ccccc2CN1c1ccnc(Oc2cncnc2)n1 [Compound 25]
3,9,O=S1(=O)c2ccccc2CN1c1ccnc(Oc2ccnc3ccccc23)n1 [Compound 27]
4,17,O=S1(=O)c2ccccc2CN1c1ccnc(-n2ccc3ccncc32)n1 [Compound 30]
5,11,O=S1(=O)c2ccccc2CN1c1ccnc(-n2cnc3ccccc32)n1 [Compound 31]

# Same assay, conditions: pEC50=−log(EC50) from curve fit; CHO-K1 cells, 90 min incubation; read-out: β-Arr pEC50 (converted)
row,SMILES,EC50 [µM]
1,O=S1(=O)c2cccc(Cl)c2CN1c1ccnc(Oc2cccnc2)n1 [Compound 3],> 31.6
2,O=S1(=O)c2cc(Cl)ccc2CN1c1ccnc(Oc2cccnc2)n1 [Compound 4],> 31.6
3,COc1ccc2c(c1Cl)S(=O)(=O)N(c1ccnc(Oc3cccnc3)n1)C2 [Compound 5],> 10
4,CC1(C)c2ccccc2S(=O)(=O)N1c1ccnc(Oc2cccnc2)n1 [Compound 6],> 10
5,O=S1(=O)c2ccccc2CN1c1ccnc(OC2CC(F)(F)C2)n1 [Compound 7],12.6
6,CC1c2ccccc2S(=O)(=O)N1c1ccnc(Oc2cccnc2)n1 (stereo not shown) [Compound 8],12.6
7,O=C1c2cccnc2CN1c1ccnc(Oc2cccnc2)n1 [Compound 9],> 31.6
8,O=C1c2ncccc2CN1c1ccnc(Oc2cccnc2)n1 [Compound 10],> 31.6
9,COc1ccc2c(c1)C(=O)N(c1ccnc(Oc3cccnc3)n1)C2 [Compound 11],> 10
10,COc1ccc2c(c1)CN(c1ccnc(Oc3cccnc3)n1)C2=O [Compound 12],> 31.6
11,Cc1ccc(Oc2nccc(N3Cc4ccccc4S3(=O)=O)n2)cn1 [Compound 18],> 10

# Next, values leading:
row,EC50 [µM],SMILES
1,3.16,CN(C)c1cccc(Oc2nccc(N3Cc4ccccc4S3(=O)=O)n2)c1 [Compound 23]
2,12.6,O=S1(=O)c2ccccc2CN1c1ccnc(Oc2cnc3ccccc3c2)n1 [Compound 26]
3,12.6,O=C1c2ccccc2CN1c1ccnc(Oc2cccnc2)n1 [Compound 28]
4,15.8,O=S1(=O)c2ccccc2CN1c1ccnc(-n2ccc3ccccc32)n1 [Compound 29]
5,25.1,O=S1(=O)c2ccccc2CN1c1ccnc(Oc2cncc3ccccc23)n1 [Compound 32]
6,15.8,O=S1(=O)c2ccccc2CN1c1ccnc(Oc2cc(Cl)cc(Cl)c2)n1 [Compound 38]
7,> 10,COc1cccc(Oc2nccc(N3Cc4ccccc4S3(=O)=O)n2)c1 [Compound 39]
8,> 10,N#Cc1ccc(Oc2nccc(N3Cc4ccccc4S3(=O)=O)n2)cc1 [Compound 40]
9,> 31.6,O=S1(=O)c2ccccc2CN1c1ccnc(Oc2ccc(Oc3ccccc3)cc2)n1 [Compound 43]
10,5.01,Cc1cc(Cl)cc(Oc2nccc(N3Cc4ccccc4S3(=O)=O)n2)c1 [Compound 46]
11,6.31,O=S1(=O)c2ccccc2CN1c1ccnc(Oc2ccc(C(F)(F)F)cc2)n1 [Compound 47]
12,> 10,O=S1(=O)c2ccccc2CN1c1ccnc(Oc2ccc(-n3cncn3)cc2)n1 [Compound 48]
13,2.51,O=S1(=O)c2ccccc2CN1c1ccnc(Oc2ccc(OC(F)(F)F)cc2)n1 [Compound 49]
14,12.6,O=S1(=O)c2ccccc2CN1c1ccnc(Oc2cncc(Br)c2)n1 [Compound 52]
15,> 10,Cc1cc(C)c(Oc2nccc(N3Cc4ccccc4S3(=O)=O)n2)cn1 [Compound 53]
16,> 10,O=S1(=O)c2ccccc2CN1c1ccnc(Oc2ccc(Cl)nc2)n1 [Compound 54]
